This passage reports IC50 results from patent US10112941B2, “Tricyclic compounds as anticancer agents” (BRISTOL-MYERS SQUIBB COMPANY, priority 2013, dated 2018).

The target in the assay is BRD4 (Homo sapiens, UniProt O60885). Put plainly: Time Resolved Fluorescence Resonance Energy Transfer (TR-FRET) binding assay, BRD4. As to conditions: one of the FRET assays described; read-out: FRET BRD4 IC50. (Time-resolved FRET reads energy transfer from a long-lived donor to a nearby acceptor.)

The structures appear in SMILES notation. Some results are limits rather than exact numbers.

For orientation: IC50 means the concentration that gives 50% inhibition. `Cc1noc(C)c1-c1cnc2c3ccc(S(C)(=O)=O)cc3n([C@H](c3ccc(F)cc3)C3CCOCC3)c2c1` [Example 172, 4-{5-[(S)-(4-Fluorophenyl)(oxan-4-yl)methyl]-7-methanesulfonyl-5H-pyrido[3,2-b]indol-3-yl}-3,5-dimethyl-1,2-oxazole]: the IC50 was less than 5 nM.
In the case of `Cc1noc(C)c1-c1cnc2c3ccc(C(C)(C)O)cc3n(C(c3cc(F)ccc3F)C3CCOCC3)c2c1` (single isomer, unassigned) [Example 139, 2-{5-[(2,5-Difluorophenyl)(oxan-4-yl)methyl]-3-(dimethyl-1,2-oxazol-4-yl)-5H-pyrido[3,2-b]indol-7-yl}propan-2-ol], the IC50 was less than 5 nM.
For `Cc1noc(C)c1-c1cnc2c3ccc(C(C)(C)O)cc3n([C@@H](c3ccccc3)C3CC3)c2c1` [Example 12], the half-maximal inhibitory concentration (IC50) is less than 25 nM.
Turning to `Cc1nnn(C)c1-c1cnc2c3c(F)cc(C(C)(C)O)cc3n(C(c3cccc(F)c3F)C3CCOCC3)c2c1` (single isomer, unassigned) [Example 109, 2-{5-[(2,3-Difluorophenyl)(oxan-4-yl)methyl]-3-(dimethyl-1H-1,2,3-triazol-5-yl)-9-fluoro-5H-pyrido[3,2-b]indol-7-yl}propan-2-ol], the IC50 was less than 5 nM.
As to `Cc1noc(C)c1-c1cnc2c3ccc(C(C)(C)O)cc3n(C(c3ccccc3F)C3CCOCC3)c2c1` (single isomer, unassigned) [Example 150, 2-[3-(Dimethyl-1,2-oxazol-4-yl)-5-[(2-fluorophenyl)(oxan-4-yl)methyl]-5H-pyrido[3,2-b]indol-7-yl]propan-2-ol], the IC50 is less than 5 nM.
For `[2H]C([2H])([2H])c1nnn(C)c1-c1cnc2c3ccc(C(C)(C)O)c(F)c3n(C(c3ccc(F)cc3F)C3CCOCC3)c2c1` (stereo not drawn) [Example 283, 2-{5-[(2,4-Difluorophenyl)(oxan-4-yl)methyl]-6-fluoro-3-[4-(^2H3)methyl-1-methyl-1H-1,2,3-triazol-5-yl]-5H-pyrido[3,2-b]indol-7-yl}propan-2-ol] the value was less than 5 nM; for `Cc1nnn(C)c1-c1cnc2c3ccc(C(C)(C)O)cc3n(C(c3c(F)cc(F)cc3F)C3CCOCC3)c2c1` (single isomer, unassigned) [Example 102, 2-[3-(Dimethyl-1H-1,2,3-triazol-5-yl)-5-[oxan-4-yl(2,4,6-trifluorophenyl)methyl]-5H-pyrido[3,2-b]indol-7-yl]propan-2-ol], less than 5 nM.
`Cc1noc(C)c1-c1cnc2c3ccc(C(C)(C)O)cc3n([C@H](c3ccccn3)C3CCOCC3)c2c1` [Example 21]: the half-inhibitory concentration (IC50) is less than 5 nM.
In the case of `Cc1nnn(C)c1-c1cnc2c3ccc(C(C)(C)O)cc3n(C(c3cccc(F)c3)C3CCOCC3)c2c1` (single isomer, unassigned) [Example 100, 2-[3-(Dimethyl-1H-1,2,3-triazol-5-yl)-5-[(3-fluorophenyl)(oxan-4-yl)methyl]-5H-pyrido[3,2-b]indol-7-yl]propan-2-ol], the 50% inhibitory concentration (IC50) is less than 5 nM.
Consider `Cc1nnn(C)c1-c1cnc2c3ccc(C(C)(C)O)cc3n([C@H](c3ccccn3)C3CCOCC3)c2c1` [Example 62], for which the IC50 is less than 25 nM.
Turning to `[2H]C([2H])([2H])c1nnn(C)c1-c1cnc2c3c(F)cc(S(C)(=O)=O)cc3n(C(c3ccccc3)C3CCC(F)(F)CC3)c2c1` (single isomer, unassigned) [Example 199, 5-{5-[(4,4-Difluorocyclohexyl)(phenyl)methyl]-9-fluoro-7-methanesulfonyl-5H-pyrido[3,2-b]indol-3-yl}-4-(^2H3)methyl-1-methyl-1H-1,2,3-triazole], the IC50 is less than 5 nM.
For `Cc1nnn(C)c1-c1cnc2c3ccc(C(C)(C)N)c(F)c3n([C@H](c3ccccc3)C3CCOCC3)c2c1` [Example 461, 2-[3-(Dimethyl-1H-1,2,3-triazol-5-yl)-6-fluoro-5-[(S)-oxan-4-yl(phenyl)methyl]-5H-pyrido[3,2-b]indol-7-yl]propan-2-amine], the IC50 is less than 5 nM.
To `Cc1noc(C)c1-c1cnc2c3ccc(C(C)(C)O)cc3n(C(c3ccc(F)c(F)c3)C3CCOCC3)c2c1` (single isomer, unassigned) [Example 142, 2-{5-[(3,4-Difluorophenyl)(oxan-4-yl)methyl]-3-(dimethyl-1,2-oxazol-4-yl)-5H-pyrido[3,2-b]indol-7-yl}propan-2-ol] belongs less than 5 nM; to `Cc1nnn(C)c1-c1cnc2c3ccc(CS(C)(=O)=O)cc3n([C@@H](c3ncccc3Cl)C3CCOCC3)c2c1` [Example 340], less than 5 nM.
For `[2H]C([2H])([2H])c1nnn(C)c1-c1cnc2c3ccc(C(C)(C)O)cc3n(C(c3cc(C)on3)C3CCOCC3)c2c1` (stereo not drawn) [Example 308, 2-{5-[(5-Methyl-1,2-oxazol-3-yl)(oxan-4-yl)methyl]-3-[4-(^2H3)methyl-1-methyl-1H-1,2,3-triazol-5-yl]-5H-pyrido[3,2-b]indol-7-yl}propan-2-ol] the value was less than 5 nM; for `[2H]C([2H])([2H])Oc1nnn(C([2H])([2H])[2H])c1-c1cnc2c3ccc(C(C)(C)O)cc3n([C@H](c3ccccc3)C3CCOCC3)c2c1` [Example 380, 2-{3-[4-(^2H3)Methoxy-1-(^2H3)methyl-1H-1,2,3-triazol-5-yl]-5-[(S)-oxan-4-yl(phenyl)methyl]-5H-pyrido[3,2-b]indol-7-yl}propan-2-ol], less than 5 nM; for `[2H]C([2H])([2H])c1nnn(C)c1-c1cnc2c3ccc(C(C)(C)O)c(F)c3n(C(c3cc(C)on3)C3CCOCC3)c2c1` (single isomer, unassigned) [Example 314], less than 5 nM.
Regarding `[2H]C([2H])([2H])c1nnn(C)c1-c1cnc2c3c(F)ccc(S(C)(=O)=O)c3n([C@H](c3ccccc3)C3CCOCC3)c2c1` [Example 221, 5-{9-Fluoro-6-methanesulfonyl-5-[(S)-oxan-4-yl(phenyl)methyl]-5H-pyrido[3,2-b]indol-3-yl}-4-(^2H3)methyl-1-methyl-1H-1,2,3-triazole], the IC50 was less than 5 nM.
Regarding `Cc1noc(C)c1-c1cnc2c3ccc(C(C)(C)O)cc3n(C(c3cccc(F)c3F)C3CCOCC3)c2c1` (single isomer, unassigned) [Example 145, 2-{5-[(2,3-Difluorophenyl)(oxan-4-yl)methyl]-3-(dimethyl-1,2-oxazol-4-yl)-5H-pyrido[3,2-b]indol-7-yl}propan-2-ol], the half-inhibitory concentration (IC50) was less than 5 nM.
As for `COc1c(C(C)(C)O)ccc2c3ncc(-c4c(C)nnn4C)cc3n([C@H](c3ccccc3)C3CCOCC3)c12` [Example 355, 2-[3-(Dimethyl-1H-1,2,3-triazol-5-yl)-6-methoxy-5-[(S)-oxan-4-yl(phenyl)methyl]-5H-pyrido[3,2-b]indol-7-yl]propan-2-ol], the IC50 was less than 5 nM.
To `[2H]C([2H])([2H])c1nnn(C)c1-c1cnc2c3c(OC)cc(S(C)(=O)=O)cc3n([C@H](c3ccc(F)cc3)C3CCOCC3)c2c1` [Example 202, 5-{5-[(S)-(4-Fluorophenyl)(oxan-4-yl)methyl]-7-methanesulfonyl-9-methoxy-5H-pyrido[3,2-b]indol-3-yl}-4-(^2H3)methyl-1-methyl-1H-1,2,3-triazole] belongs less than 5 nM; to `[2H]C([2H])([2H])Oc1ccc(S(=O)(=O)C([2H])([2H])[2H])c2c1c1ncc(-c3c(C)nnn3C)cc1n2[C@H](c1ccccc1)C1CCOCC1` [Example 184, 5-[6-(^2H3)Methanesulfonyl-9-(^2H3)methoxy-5-[(S)-oxan-4-yl(phenyl)methyl]-5H-pyrido[3,2-b]indol-3-yl]-1,4-dimethyl-1H-1,2,3-triazole], less than 5 nM; to `Cc1nnn(C)c1-c1cnc2c3ccc(C(C)(C)NS(C)(=O)=O)cc3n([C@H](c3ccccc3)C3CCOCC3)c2c1` [Example 411, N-{2-[3-(Dimethyl-1H-1,2,3-triazol-5-yl)-5-[(S)-oxan-4-yl(phenyl)methyl]-5H-pyrido[3,2-b]indol-7-yl]propan-2-yl}methanesulfonamide], less than 5 nM.
For `[2H]C([2H])([2H])c1nnn(C)c1-c1cnc2c3c(NS(=O)(=O)C4CC4)ccc(S(C)(=O)=O)c3n([C@H](c3ccccc3)C3CCOCC3)c2c1` [Example 222, N-{6-Methanesulfonyl-3-[4-(^2H3)methyl-1-methyl-1H-1,2,3-triazol-5-yl]-5-[(S)-oxan-4-yl(phenyl)methyl]-5H-pyrido[3,2-b]indol-9-yl}cyclopropanesulfonamide] the value was less than 5 nM; for `Cc1noc(C)c1-c1cnc2c3ccc(C(C)(C)O)cc3n(C(c3ccccc3)C3(F)CCC3)c2c1` (single isomer, unassigned) [Example 33, 2-[3-(Dimethyl-1,2-oxazol-4-yl)-5-[(1-fluorocyclobutyl)(phenyl)methyl]-5H-pyrido[3,2-b]indol-7-yl]propan-2-ol], less than 5 nM; for `Cc1noc(C)c1-c1cnc2c3ccc(C(C)(C)O)cc3n([C@@H](c3ccc(F)cc3)C3CCC3)c2c1` [Example 16], less than 25 nM.
To `Cn1nnc(C2CC2)c1-c1cnc2c3ccc(C(C)(C)O)cc3n([C@H](c3ccccc3)C3CCOCC3)c2c1` [Example 385, 2-[3-(4-Cyclopropyl-1-methyl-1H-1,2,3-triazol-5-yl)-5-[(S)-oxan-4-yl(phenyl)methyl]-5H-pyrido[3,2-b]indol-7-yl]propan-2-ol] belongs less than 5 nM; to `Cc1nnn(C)c1-c1cnc2c3cc(CCC(C)(C)O)ccc3n([C@H](c3ccccc3)C3CCOCC3)c2c1` [Example 153, 4-[3-(Dimethyl-1H-1,2,3-triazol-5-yl)-5-[(S)-oxan-4-yl(phenyl)methyl]-5H-pyrido[3,2-b]indol-8-yl]-2-methylbutan-2-ol], less than 5 nM; to `Cn1nnc(Cl)c1-c1cnc2c3cc(Cl)c(C(C)(C)O)cc3n([C@H](c3ccccc3)C3CCOCC3)c2c1` [Example 386, 2-[8-Chloro-3-(4-chloro-1-methyl-1H-1,2,3-triazol-5-yl)-5-[(S)-oxan-4-yl(phenyl)methyl]-5H-pyrido[3,2-b]indol-7-yl]propan-2-ol], less than 5 nM.
Consider `Cc1nnn(C)c1-c1cnc2c3c(NS(C)(=O)=O)ccc(S(C)(=O)=O)c3n([C@H](c3ccccc3)C3CCOCC3)c2c1` [Example 216, N-[3-(dimethyl-1H-1,2,3-triazol-5-yl)-6-methanesulfonyl-5-[(S)-oxan-4-yl(phenyl)methyl]-5H-pyrido[3,2-b]indol-9-yl]methanesulfonamide], for which the IC50 is less than 5 nM.
